Measured values taken from ChEMBL document CHEMBL4665642, “Anticancer profile of newly synthesized BRAF inhibitors possess 5-(pyrimidin-4-yl)imidazo[2,1-b]thiazole scaffold” (Bioorg Med Chem, 2019).

Assays:
Format in all cases: functional
Details in all cases: read-out: Activity
MDA-MB-468 = experiment: Cytotoxicity against human MDA-MB-468 cells assessed as cell viability at 10 uM incubated for 48 hrs by sulforhodamine B assay relative to control
BT-549 = experiment: Cytotoxicity against human BT-549 cells assessed as cell viability at 10 uM incubated for 48 hrs by sulforhodamine B assay relative to control
MDA-MB-231 = experiment: Cytotoxicity against human MDA-MB-231 cells assessed as cell viability at 10 uM incubated for 48 hrs by sulforhodamine B assay relative to control
MCF7 = experiment: Cytotoxicity against human MCF7 cells assessed as cell viability at 10 uM incubated for 48 hrs by sulforhodamine B assay relative to control
DU-145 = experiment: Cytotoxicity against human DU-145 cells assessed as cell viability at 10 uM incubated for 48 hrs by sulforhodamine B assay relative to control
PC-3 = experiment: Cytotoxicity against human PC-3 cells assessed as cell viability at 10 uM incubated for 48 hrs by sulforhodamine B assay relative to control
TK-10 = experiment: Cytotoxicity against human TK-10 cells assessed as cell viability at 10 uM incubated for 48 hrs by sulforhodamine B assay relative to control
SN12C = experiment: Cytotoxicity against human SN12C cells assessed as cell viability at 10 uM incubated for 48 hrs by sulforhodamine B assay relative to control
CAKI-1 = experiment: Cytotoxicity against human CAKI-1 cells assessed as cell viability at 10 uM incubated for 48 hrs by sulforhodamine B assay relative to control
ACHN = experiment: Cytotoxicity against human ACHN cells assessed as cell viability at 10 uM incubated for 48 hrs by sulforhodamine B assay relative to control
786-0 = experiment: Cytotoxicity against human 786-0 cells assessed as cell viability at 10 uM incubated for 48 hrs by sulforhodamine B assay relative to control
SK-OV-3 = experiment: Cytotoxicity against human SK-OV-3 cells assessed as cell viability at 10 uM incubated for 48 hrs by sulforhodamine B assay relative to control
NCI/ADR-RES = experiment: Cytotoxicity against human NCI/ADR-RES cells assessed as cell viability at 10 uM incubated for 48 hrs by sulforhodamine B assay relative to control
OVCAR-8 = experiment: Cytotoxicity against human OVCAR-8 cells assessed as cell viability at 10 uM incubated for 48 hrs by sulforhodamine B assay relative to control
OVCAR-4 = experiment: Cytotoxicity against human OVCAR-4 cells assessed as cell viability at 10 uM incubated for 48 hrs by sulforhodamine B assay relative to control
OVCAR-3 = experiment: Cytotoxicity against human OVCAR-3 cells assessed as cell viability at 10 uM incubated for 48 hrs by sulforhodamine B assay relative to control
IGROV-1 = experiment: Cytotoxicity against human IGROV-1 cells assessed as cell viability at 10 uM incubated for 48 hrs by sulforhodamine B assay relative to control
SK-MEL-28 = experiment: Cytotoxicity against human SK-MEL-28 cells assessed as cell viability at 10 uM incubated for 48 hrs by sulforhodamine B assay relative to control
MDA-MB-435 = experiment: Cytotoxicity against human MDA-MB-435 cells assessed as cell viability at 10 uM incubated for 48 hrs by sulforhodamine B assay relative to control
M14 = experiment: Cytotoxicity against human M14 cells assessed as cell viability at 10 uM incubated for 48 hrs by sulforhodamine B assay relative to control
CCRF-CEM = experiment: Cytotoxicity against human CCRF-CEM cells assessed as cell viability at 10 uM incubated for 48 hrs by sulforhodamine B assay relative to control
HL-60(TB) = experiment: Cytotoxicity against human HL-60(TB) cells assessed as cell viability at 10 uM incubated for 48 hrs by sulforhodamine B assay relative to control
K562 = experiment: Cytotoxicity against human K562 cells assessed as cell viability at 10 uM incubated for 48 hrs by sulforhodamine B assay relative to control
RPMI-8226 = experiment: Cytotoxicity against human RPMI-8226 cells assessed as cell viability at 10 uM incubated for 48 hrs by sulforhodamine B assay relative to control
SR = experiment: Cytotoxicity against human SR cells assessed as cell viability at 10 uM incubated for 48 hrs by sulforhodamine B assay relative to control
A549 = experiment: Cytotoxicity against human A549 cells assessed as cell viability at 10 uM incubated for 48 hrs by sulforhodamine B assay relative to control
HOP-62 = experiment: Cytotoxicity against human HOP-62 cells assessed as cell viability at 10 uM incubated for 48 hrs by sulforhodamine B assay relative to control
HOP-92 = experiment: Cytotoxicity against human HOP-92 cells assessed as cell viability at 10 uM incubated for 48 hrs by sulforhodamine B assay relative to control
NCI-H226 = experiment: Cytotoxicity against human NCI-H226 cells assessed as cell viability at 10 uM incubated for 48 hrs by sulforhodamine B assay relative to control
NCI-H23 = experiment: Cytotoxicity against human NCI-H23 cells assessed as cell viability at 10 uM incubated for 48 hrs by sulforhodamine B assay relative to control
NCI-H322M = experiment: Cytotoxicity against human NCI-H322M cells assessed as cell viability at 10 uM incubated for 48 hrs by sulforhodamine B assay relative to control
NCI-H460 = experiment: Cytotoxicity against human NCI-H460 cells assessed as cell viability at 10 uM incubated for 48 hrs by sulforhodamine B assay relative to control
COLO 205 = experiment: Cytotoxicity against human COLO 205 cells assessed as cell viability at 10 uM incubated for 48 hrs by sulforhodamine B assay relative to control
HCT-15 = experiment: Cytotoxicity against human HCT-15 cells assessed as cell viability at 10 uM incubated for 48 hrs by sulforhodamine B assay relative to control
HCT-29 = experiment: Cytotoxicity against human […] cells assessed as cell viability at 10 uM incubated for 48 hrs by sulforhodamine B assay relative to control
KM12 = experiment: Cytotoxicity against human KM12 cells assessed as cell viability at 10 uM incubated for 48 hrs by sulforhodamine B assay relative to control
SF-268 = experiment: Cytotoxicity against human SF-268 cells assessed as cell viability at 10 uM incubated for 48 hrs by sulforhodamine B assay relative to control
SF-295 = experiment: Cytotoxicity against human SF-295 cells assessed as cell viability at 10 uM incubated for 48 hrs by sulforhodamine B assay relative to control
SNB-19 = experiment: Cytotoxicity against human SNB-19 cells assessed as cell viability at 10 uM incubated for 48 hrs by sulforhodamine B assay relative to control
SNB-75 = experiment: Cytotoxicity against human SNB-75 cells assessed as cell viability at 10 uM incubated for 48 hrs by sulforhodamine B assay relative to control
LOX IMVI = experiment: Cytotoxicity against human LOX IMVI cells assessed as cell viability at 10 uM incubated for 48 hrs by sulforhodamine B assay relative to control

O=S(=O)(NCCNc1nccc(-c2c(-c3cccc(F)c3)nc3sccn23)n1)c1cccc(F)c1
viability at 10 µM (MDA-MB-468): 68.6%
viability at 10 µM (BT-549): 81.5%
viability at 10 µM (MDA-MB-231): 79%
viability at 10 µM (MCF7): 30.8%
viability at 10 µM (DU-145): 65.1%
viability at 10 µM (PC-3): 67.2%
viability at 10 µM (TK-10): 88%
viability at 10 µM (SN12C): 55.3%
viability at 10 µM (CAKI-1): 44.6%
viability at 10 µM (ACHN): 39.9%
viability at 10 µM (786-0): 63.9%
viability at 10 µM (SK-OV-3): 95.8%
viability at 10 µM (NCI/ADR-RES): 80.3%
viability at 10 µM (OVCAR-8): 60.1%
viability at 10 µM (OVCAR-4): 64.8%
viability at 10 µM (OVCAR-3): 76.7%
viability at 10 µM (IGROV-1): 24.6%
viability at 10 µM (SK-MEL-28): 94.7%
viability at 10 µM (MDA-MB-435): 41.9%
viability at 10 µM (M14): 69.4%
viability at 10 µM (CCRF-CEM): 63.3%
viability at 10 µM (HL-60(TB)): 101%
viability at 10 µM (K562): 48.6%
viability at 10 µM (RPMI-8226): 66.8%
viability at 10 µM (SR): 45.5%
viability at 10 µM (A549): 42.1%
viability at 10 µM (HOP-62): 83.5%
viability at 10 µM (HOP-92): 88.2%
viability at 10 µM (NCI-H226): 62.5%
viability at 10 µM (NCI-H23): 83.4%
viability at 10 µM (NCI-H322M): 77.1%
viability at 10 µM (NCI-H460): 43%
viability at 10 µM (COLO 205): 45.1%
viability at 10 µM (HCT-15): 38.9%
viability at 10 µM (HCT-29): 43.9%
viability at 10 µM (KM12): 44.2%
viability at 10 µM (SF-268): 68.6%
viability at 10 µM (SF-295): 80.6%
viability at 10 µM (SNB-19): 73%
viability at 10 µM (SNB-75): 80%
viability at 10 µM (LOX IMVI): 51.2%
